Source: US11274083B2, “Substituted thiophenyl uracils, salts thereof and the use thereof as herbicidal agents” (Syngenta Crop Protection AG, priority 2017, dated 2022)
Values joined by “and” are separate entries in the source; they are usually repeats but may differ in a detail not shown here. Equal values may be shown once.

What was measured:
Assay type in all cases: in vivo
[1] = system: Abutilon theophrasti; assay: Herbicidal action post-emergence, greenhouse pot test
In short: (§1)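 Visual efficacy scoring (0% like untreated, 100% plant death) about 3 weeks post-treatment. Application, at ≤80 g/ha, was a post-emergence spray of wettable-powder or emulsion-concentrate formulations in water with 0.5% additive at 600 L/ha onto one-leaf-stage plants grown 2–3 weeks from seed in sandy loam.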

[2] = system: Alopecurus myosuroides; assay: as above; details: application rate 20 g/ha, scored visually after about 3 weeks vs untreated controls
In short: as §1

[3] = system: Amaranthus retroflexus; assay: as above
In short: as §1

[4] = system: Echinochloa crus-galli; assay: as above
In short: as §1

[5] = system: Matricaria inodora; assay: as above
In short: as §1

[6] = system: Pharbitis purpurea; assay: as above
In short: as §1

[7] = system: Polygonum convolvulus; assay: as above
In short: as §1

[8] = system: Setaria viridis; assay: as above
In short: as §1

[9] = system: Stellaria media; assay: as above
In short: as §1

[10] = system: Veronica persica; assay: as above
In short: as §1

[11] = system: Viola tricolor; assay: as above
In short: as §1

[12] = system: Triticum aestivum; assay: Crop compatibility post-emergence, greenhouse pot test; details: application rate 20 g/ha
In short: (§2)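 Visual % damage versus untreated plants, read about 3 weeks after treatment (100% = plants died, 0% = as control). Crops were sown in sandy loam pots in a greenhouse and sprayed at one-leaf stage with WP/EC compound in water with 0.5% additive, 600 L/ha.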

[13] = system: Abutilon theophrasti; assay: Herbicidal action pre-emergence, greenhouse pot test
In short: (§3)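 Pre-emergence soil-surface treatment at application rates of 320 g/ha or below, using WP or EC formulations in water (600 L/ha) plus 0.5% additive over freshly sown, soil-covered seeds. After roughly 3 weeks' greenhouse growth, damage rated visually against untreated plants, 0% meaning like control.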

[14] = system: Amaranthus retroflexus; assay: as above; details: application rate 80 g/ha
In short: as §3

[15] = system: Echinochloa crus-galli; assay: as above
In short: as §3

[16] = system: Pharbitis purpurea; assay: as above
In short: as §3

[17] = system: Polygonum convolvulus; assay: as above
In short: as §3

[18] = system: Setaria viridis; assay: as above
In short: as §3

[19] = system: Stellaria media; assay: as above
In short: as §3

[20] = system: Veronica persica; assay: as above
In short: as §3

[21] = system: Viola tricolor; assay: as above
In short: as §3

[22] = system: Matricaria inodora; assay: as above
[23] = system: Digitaria sanguinalis; assay: Herbicidal action post-emergence, greenhouse pot test; details: application rate 20 g/ha
[24] = system: Digitaria sanguinalis; assay: Herbicidal action pre-emergence, greenhouse pot test; details: application rate 80 g/ha
From the text: Seeds of mono- and dicotyledonous weeds and crop plants were laid out in plastic or organic plant pots and covered with soil. The compounds of the invention formulated in the form of wettable powders (WP) or as emulsion concentrates (EC) were then applied to the surface of the covering soil as an aqueous suspension or emulsion with addition of 0.5% additive at a water application rate equivalent to 600 L/ha. After the treatment, the pots were placed in a greenhouse and kept under good growth conditions for the test plants. After about 3 weeks, the efficacy of the preparations was scored visually as a percentage by comparison with untreated controls. For example, 100% efficacy=plants have died. 0% efficacy=like control plants.

[25] = system: Avena fatua; assay: Herbicidal action post-emergence, greenhouse pot test; details: application rate 80 g/ha
In short: as §1

[26] = system: Hordeum murinum; assay: as above; details: application rate 80 g/ha
In short: as §1

[27] = system: Glycine max; assay: Crop compatibility post-emergence, greenhouse pot test; details: application rate 20 g/ha
In short: as §2

[28] = system: Oryza sativa; assay: as above; details: application rate 80 g/ha
In short: as §2

[29] = system: Zea mays; assay: as above; details: application rate 80 g/ha
In short: as §2

[30] = system: Alopecurus myosuroides; assay: Herbicidal action pre-emergence, greenhouse pot test; details: application rate 320 g/ha
In short: as §3

[31] = system: Avena fatua; assay: as above; details: application rate 320 g/ha
In short: as §3

[32] = system: Cyperus esculentus; assay: as above; details: application rate 320 g/ha
In short: as §3

[33] = system: Hordeum murinum; assay: as above; details: application rate 320 g/ha
In short: as §3

[34] = system: Lolium rigidum; assay: as above; details: application rate 320 g/ha
In short: as §3

Compound: CC(Sc1cc(-n2c(=O)cc(C(F)(F)F)n(C)c2=O)c(F)cc1Cl)C(=O)OC1C(=O)OCC1(C)C (stereo not shown) [I.1-142]
- Abutilon theophrasti (Efficacy in %) ([1]; application rate 20 g/ha): 100%
- Alopecurus myosuroides (Efficacy in %) [2]: 80%
- Amaranthus retroflexus (Efficacy in %) ([3]; application rate 20 g/ha): 100%
- Echinochloa crus-galli (Efficacy in %) ([4]; application rate 20 g/ha): 100%
- Matricaria inodora (Efficacy in %) ([5]; application rate 20 g/ha): 100%
- Pharbitis purpurea (Efficacy in %) ([6]; application rate 20 g/ha): 100%
- Polygonum convolvulus (Efficacy in %) ([7]; application rate 20 g/ha): 100%
- Setaria viridis (Efficacy in %) ([8]; application rate 20 g/ha): 100%
- Stellaria media (Efficacy in %) ([9]; application rate 20 g/ha): 100%
- Veronica persica (Efficacy in %) ([10]; application rate 20 g/ha): 100%
- Viola tricolor (Efficacy in %) ([11]; application rate 20 g/ha): 100%
- Triticum aestivum (Efficacy in %) [12]: 20%
- Abutilon theophrasti (Efficacy in %) ([13]; application rate 80 g/ha): 100%
- Amaranthus retroflexus (Efficacy in %) [14]: 100%
- Echinochloa crus-galli (Efficacy in %) ([15]; application rate 80 g/ha): 90%
- Pharbitis purpurea (Efficacy in %) ([16]; application rate 80 g/ha): 90%
- Polygonum convolvulus (Efficacy in %) ([17]; application rate 80 g/ha): 100%
- Setaria viridis (Efficacy in %) ([18]; application rate 80 g/ha): 100%
- Stellaria media (Efficacy in %) ([19]; application rate 80 g/ha): 100%
- Veronica persica (Efficacy in %) ([20]; application rate 80 g/ha): 100%
- Viola tricolor (Efficacy in %) ([21]; application rate 80 g/ha): 100%
- Matricaria inodora (Efficacy in %) ([22]; application rate 80 g/ha): 100%
- Digitaria sanguinalis (Efficacy in %) [23]: 100%
- Digitaria sanguinalis (Efficacy in %) [24]: 100%

Compound: CC(Sc1cc(-n2c(=O)cc(C(F)(F)F)n(C)c2=O)c(F)cc1Cl)C(=O)OC1CNC(=O)C1 (stereo not shown) [I.1-254]
- Abutilon theophrasti (Efficacy in %) ([1]; application rate 80 g/ha): 100%
- Amaranthus retroflexus (Efficacy in %) ([3]; application rate 80 g/ha): 100%
- Avena fatua (Efficacy in %) [25]: 80%
- Echinochloa crus-galli (Efficacy in %) ([4]; application rate 80 g/ha): 100%
- Hordeum murinum (Efficacy in %) [26]: 100% and 80%
- Matricaria inodora (Efficacy in %) ([5]; application rate 80 g/ha): 100%
- Pharbitis purpurea (Efficacy in %) ([6]; application rate 80 g/ha): 100%
- Polygonum convolvulus (Efficacy in %) ([7]; application rate 80 g/ha): 100%
- Setaria viridis (Efficacy in %) ([8]; application rate 80 g/ha): 100%
- Stellaria media (Efficacy in %) ([9]; application rate 80 g/ha): 90%
- Veronica persica (Efficacy in %) ([10]; application rate 80 g/ha): 90%
- Viola tricolor (Efficacy in %) ([11]; application rate 80 g/ha): 100%
- Glycine max (Efficacy in %) [27]: 20%
- Oryza sativa (Efficacy in %) [28]: 0%
- Triticum aestivum (Efficacy in %) [12]: 10%
- Zea mays (Efficacy in %) [29]: 0%
- Abutilon theophrasti (Efficacy in %) ([13]; application rate 320 g/ha): 100%
- Alopecurus myosuroides (Efficacy in %) [30]: 100%
- Amaranthus retroflexus (Efficacy in %) [14]: 100%
- Avena fatua (Efficacy in %) [31]: 90%
- Cyperus esculentus (Efficacy in %) [32]: 80%
- Echinochloa crus-galli (Efficacy in %) ([15]; application rate 320 g/ha): 100%
- Hordeum murinum (Efficacy in %) [33]: 90%
- Lolium rigidum (Efficacy in %) [34]: 100%
- Pharbitis purpurea (Efficacy in %) ([16]; application rate 320 g/ha): 100%
- Polygonum convolvulus (Efficacy in %) ([17]; application rate 320 g/ha): 100%
- Setaria viridis (Efficacy in %) ([18]; application rate 320 g/ha): 100%
- Stellaria media (Efficacy in %) ([19]; application rate 320 g/ha): 100%
- Veronica persica (Efficacy in %) ([20]; application rate 320 g/ha): 100%
- Viola tricolor (Efficacy in %) ([21]; application rate 320 g/ha): 100%
- Matricaria inodora (Efficacy in %) ([22]; application rate 320 g/ha): 100%
